Laboratory results as given in ChEMBL document CHEMBL4483862, “Open-source discovery of chemical leads for next-generation chemoprotective antimalarials” (2018).

System: Plasmodium berghei
Experiment: Luciferase/luciferin-expressing antifolate-resistant parasites were used to infect a culture of HepG2 cells that were pre-incubated with compounds. Infected hepatocytes emit light due to the luciferase reaction. Assay results are presented as the percent inhibition of light emission compared to control. […]
Type: functional
Details: sporozoite; for IC90: read-out: LUCIFERASE INFECTION ASSAY - IC90
[1] = read-out: LUCIFERASE INFECTION ASSAY - IC50

O=C(Nc1cccc(C(F)(F)F)c1)n1cc(-c2ccccn2)c(N2CCOCC2)n1 was tested, and the IC50 (PBLUC_HILL_SLOPE 5.81, PBLUC_R_SQUARED 0.476, read-out: LUCIFERASE INFECTION ASSAY - IC50) was 5.62 µM and the IC90 was > 7.91 µM.
COc1ccc(Cn2c3c(c4ccccc4c2=O)C(=O)c2ccccc2-3)cc1 was tested, and the IC50 (HEPG2TOX_HILL_SLOPE 4, HEPG2TOX_R_SQUARED 0.749, PBLUC_HILL_SLOPE 2.74, PBLUC_R_SQUARED 0.283, read-out: LUCIFERASE INFECTION ASSAY - IC50) was 7.93 µM and the IC90 was > 8.98 µM.
CC(C)(C)c1ccc(C2Nc3ccccc3C(=O)N2C2CC2)cc1 (stereo not drawn) showed an IC50 (PBLUC_HILL_SLOPE 18.7, PBLUC_R_SQUARED 0.174, read-out: LUCIFERASE INFECTION ASSAY - IC50) of 8.81 µM and an IC90 of 9.91 µM.
With O=[N+]([O-])c1cccc2nc(/C=C/c3nn(Cc4ccccc4)cc3-c3cccnc3)ccc12 the IC50 [1] was > 10 µM and the IC90 was > 10 µM.
For Cc1ccc(S(=O)(=O)Nc2ccccc2-c2nnc(-c3ccc(C(C)(C)C)cc3)o2)cc1, the IC50 (HEPG2TOX_HILL_SLOPE 0.544, HEPG2TOX_R_SQUARED 0.0439, read-out: LUCIFERASE INFECTION ASSAY - IC50) was > 7.37 µM and the IC90 was > 7.37 µM.
Cc1ccc(C(C)C)c(Oc2nnnn2-c2ccccc2)c1 was tested, and the IC50 (HEPG2TOX_HILL_SLOPE 3.94, HEPG2TOX_R_SQUARED 0.78, PBLUC_HILL_SLOPE 282, PBLUC_R_SQUARED 0.16, read-out: LUCIFERASE INFECTION ASSAY - IC50) was 4.34 µM and the IC90 was 4.38 µM.
For O=C(c1csc2c1CCCC2)N1CCc2c(c(C(=O)N3CCCC3)nn2Cc2ccncc2)C1, the IC50 [1] was > 6.94 µM and the IC90 was > 6.94 µM.
Compound COCc1cccc(-c2cc(-c3cccc4ccccc34)cnc2N)c1 has an IC50 (HEPG2TOX_HILL_SLOPE 1.78, HEPG2TOX_R_SQUARED 0.808, PBLUC_HILL_SLOPE 16.4, PBLUC_R_SQUARED 0.784, read-out: LUCIFERASE INFECTION ASSAY - IC50) of 1.08 µM and an IC90 of 1.23 µM.
For N#CC(C#N)=C/C=C(/Sc1nc(-c2ccccc2)cs1)c1ccc(Cl)cc1, the IC50 (FFLUC_HILL_SLOPE 19.5, FFLUC_R_SQUARED 0.704, PBLUC_HILL_SLOPE 6.45, PBLUC_R_SQUARED 0.183, read-out: LUCIFERASE INFECTION ASSAY - IC50) was > 8.13 µM and the IC90 was > 8.13 µM.
With COc1cc(/C=C/C(=O)c2ccc3[nH]c(=O)[nH]c3c2)cc(Cl)c1OC(F)F the IC50 (PBLUC_HILL_SLOPE 1.43, PBLUC_R_SQUARED 0.612, read-out: LUCIFERASE INFECTION ASSAY - IC50) was 6.07 µM and the IC90 was > 10 µM.
In the case of CN(C)c1ccc(C2CC(=O)c3ccccc3N2)cc1 (stereo not drawn), the IC50 [1] is reported as > 12.4 µM and the IC90 is reported as > 12.4 µM.
Nc1cc(-c2ccc(Br)s2)n[nH]1 was tested, and the IC50 [1] was > 10 µM and the IC90 was > 10 µM.
OC[C@H]1O[C@@H](c2nc(-c3ccc4c(c3)CCO4)no2)[C@H](O)[C@@H]1O was tested, and the IC50 [1] was > 10.3 µM and the IC90 was > 10.3 µM.
With CNc1ccccc1C(=O)N/N=C/c1cc(Cl)cc(Cl)c1O the IC50 (HEPG2TOX_HILL_SLOPE 2.97, HEPG2TOX_R_SQUARED 0.147, PBLUC_HILL_SLOPE 9.98, PBLUC_R_SQUARED 0.459, read-out: LUCIFERASE INFECTION ASSAY - IC50) was > 9.76 µM and the IC90 was > 9.76 µM.
CS(=O)(=O)Nc1nc(-c2ccccn2)nc2scc(-c3ccccc3)c12 gave an IC50 (HEPG2TOX_HILL_SLOPE 1.24, HEPG2TOX_R_SQUARED 0.884, PBLUC_HILL_SLOPE 3.45, PBLUC_R_SQUARED 0.254, read-out: LUCIFERASE INFECTION ASSAY - IC50) of 1.74 µM and an IC90 of 3.29 µM.
With COc1ccc(CN2C(=O)N(C)C3(CCN(Cc4ccc(N(C)c5ccccc5)cc4)CC3)C2=O)cc1 the IC50 (HEPG2TOX_HILL_SLOPE 3.68, HEPG2TOX_R_SQUARED 0.977, PBLUC_HILL_SLOPE 4.63, PBLUC_R_SQUARED 0.726, read-out: LUCIFERASE INFECTION ASSAY - IC50) was 2.36 µM and the IC90 was 3.8 µM.
For COc1ccc(-c2csc3ncnc(NC4CCN(CC(N)=O)CC4)c23)cc1, the IC50 [1] was 5.11 µM and the IC90 was 8.68 µM.
O=C(NNC(=O)c1csnn1)c1ccc(C(F)(F)F)cc1 was tested, and the IC50 (PBLUC_HILL_SLOPE 3.95, PBLUC_R_SQUARED 0.658, read-out: LUCIFERASE INFECTION ASSAY - IC50) was 0.684 µM and the IC90 was 1.19 µM.
CN(C)c1cccc(-c2ccc3nnc(-c4ccc5c(c4)OCO5)n3c2)c1 gave an IC50 (HEPG2TOX_HILL_SLOPE 1.77, HEPG2TOX_R_SQUARED 0.976, PBLUC_HILL_SLOPE 2.39, PBLUC_R_SQUARED 0.666, read-out: LUCIFERASE INFECTION ASSAY - IC50) of 2.04 µM and an IC90 of 5.11 µM.
In the case of CC(Nc1ccc(OC(F)(F)F)cc1)C(=O)Nc1ccc(C#N)c(Cl)c1 (stereo not drawn), the IC50 [1] is reported as 8.9 µM and the IC90 is reported as > 10 µM.
For CCCCNC(=O)N1CCC(C(=O)c2c(C)c(C)c(C)c(C)c2C)CC1, the IC50 [1] was > 9.2 µM and the IC90 was > 9.2 µM.
In the case of Cc1ccc2cc(COC(=O)/C(=C/c3ccccc3)n3nnnc3C)c(Cl)nc2c1, the IC50 (FFLUC_HILL_SLOPE 11.2, FFLUC_R_SQUARED 0.126, read-out: LUCIFERASE INFECTION ASSAY - IC50) is reported as > 10 µM and the IC90 is reported as > 10 µM.
In the case of Cn1c(-c2ccccc2)nc2cnc(-c3ccc(N)nc3)cc21, the IC50 (HEPG2TOX_HILL_SLOPE 4.2, HEPG2TOX_R_SQUARED 0.898, PBLUC_HILL_SLOPE 2.04, PBLUC_R_SQUARED 0.316, read-out: LUCIFERASE INFECTION ASSAY - IC50) is reported as 5.32 µM and the IC90 is reported as > 10 µM.
For O=C(Cn1cnc2c(cnn2-c2ccccc2[N+](=O)[O-])c1=O)Nc1ccc(OCc2ccccc2)cc1, the IC50 (PBLUC_HILL_SLOPE 3.88, PBLUC_R_SQUARED 0.658, read-out: LUCIFERASE INFECTION ASSAY - IC50) was 7.44 µM and the IC90 was > 10 µM.
O=[N+]([O-])c1cc(C(F)(F)F)ccc1N/N=C1\CCCCC1CCS(=O)(=O)c1ccc(Cl)cc1 (stereo not drawn) was tested, and the IC50 [1] was > 6.55 µM and the IC90 was > 6.55 µM.
In the case of CC1C(=O)Nc2ccc(-c3csc(-c4ccc(NC(=O)c5ccco5)cc4)n3)cc21 (stereo not drawn), the IC50 [1] is reported as > 10 µM and the IC90 is reported as > 10 µM.
For O=C1/C(=C/c2ccc(-n3cncn3)c(F)c2)CSc2ccccc21, the IC50 [1] was > 10 µM and the IC90 was > 10 µM.
Work on O=C(c1cccc(-c2ccncc2)c1)c1cnc(Nc2cccc(Br)c2)[nH]1 yielded an IC50 (HEPG2TOX_HILL_SLOPE 2.34, HEPG2TOX_R_SQUARED 0.815, PBLUC_HILL_SLOPE 3.59, PBLUC_R_SQUARED 0.729, read-out: LUCIFERASE INFECTION ASSAY - IC50) of 1.38 µM and an IC90 of 2.54 µM.
Cc1nc(NCCCc2n[nH]c(N)c2C#N)c2c(-c3ccccc3)csc2n1 showed an IC50 (PBLUC_HILL_SLOPE 3.76, PBLUC_R_SQUARED 0.424, read-out: LUCIFERASE INFECTION ASSAY - IC50) of 5.44 µM and an IC90 of 9.77 µM.
Cc1ccc(-c2nn(-c3ccccc3)cc2/C=C/C(=O)NC2CCN(Cc3ccccc3)CC2)cc1 showed an IC50 (PBLUC_HILL_SLOPE 22.5, 12.9, PBLUC_R_SQUARED 0.0358, 0.549, read-out: LUCIFERASE INFECTION ASSAY - IC50) of 8.22 µM and an IC90 of 9.38 µM.
Compound O=C(Nc1ccccc1)c1ccc(CN2C(=O)NC(c3ccccc3)(c3ccccc3)C2=O)cc1 has an IC50 (FFLUC_HILL_SLOPE 6.57, FFLUC_R_SQUARED 0.404, PBLUC_HILL_SLOPE 14.6, PBLUC_R_SQUARED 0.481, read-out: LUCIFERASE INFECTION ASSAY - IC50) of 3.39 µM and an IC90 of 3.94 µM.
For CC(C)(CSc1ccc(F)cc1)NS(=O)(=O)c1ccc(Cl)cc1, the IC50 (FFLUC_HILL_SLOPE 2.37, FFLUC_R_SQUARED 0.607, HEPG2TOX_HILL_SLOPE 7.41, HEPG2TOX_R_SQUARED 0.381, PBLUC_HILL_SLOPE 2.26, 0.933, PBLUC_R_SQUARED 0.368, 0.781, read-out: LUCIFERASE INFECTION ASSAY - IC50) was 4.38 µM and the IC90 was > 10 µM.
COc1ccc(-c2noc(CN3CCN(C(=O)c4nn(-c5cccc(Cl)c5)nc4C)CC3)n2)cc1 was tested, and the IC50 (HEPG2TOX_HILL_SLOPE 14.4, HEPG2TOX_R_SQUARED 0.481, PBLUC_HILL_SLOPE 15.9, PBLUC_R_SQUARED 0.0941, read-out: LUCIFERASE INFECTION ASSAY - IC50) was 9.11 µM and the IC90 was > 10 µM.
CCOC(=O)c1c(C)[nH]c(C(=O)Nc2nc(-c3c(C)cc(C)cc3C)cs2)c1C showed an IC50 (FFLUC_HILL_SLOPE 12.1, FFLUC_R_SQUARED 0.461, HEPG2TOX_HILL_SLOPE 1.22, HEPG2TOX_R_SQUARED 0.98, PBLUC_HILL_SLOPE 1.25, PBLUC_R_SQUARED 0.783, read-out: LUCIFERASE INFECTION ASSAY - IC50) of 1.65 µM and an IC90 of 9.66 µM.
Compound Cn1c(NCc2ccccc2F)nc2cnc(-c3ccc4c(c3)OCO4)cc21 has an IC50 (HEPG2TOX_HILL_SLOPE 10, HEPG2TOX_R_SQUARED 0.935, PBLUC_HILL_SLOPE 10.5, PBLUC_R_SQUARED 0.0559, read-out: LUCIFERASE INFECTION ASSAY - IC50) of 4.23 µM and an IC90 of 5.21 µM.
CN(C)C(=O)c1cccc(-c2cn3c(-c4ccc(N(C)C)cc4)cnc3cn2)c1 showed an IC50 [1] of 4.36 µM and an IC90 of 7.57 µM.
Nc1ccc(-c2cn3c(-c4ccc5ncccc5c4)cnc3cn2)cn1 showed an IC50 (HEPG2TOX_HILL_SLOPE 12.3, HEPG2TOX_R_SQUARED 0.596, PBLUC_HILL_SLOPE 12.7, PBLUC_R_SQUARED 0.251, read-out: LUCIFERASE INFECTION ASSAY - IC50) of 7.29 µM and an IC90 of 8.67 µM.
With CN1/C(=C\C(=O)C[n+]2cccc(Br)c2)C(C)(C)c2ccccc21 the IC50 (HEPG2TOX_HILL_SLOPE 3.72, HEPG2TOX_R_SQUARED 0.897, PBLUC_HILL_SLOPE 2.59, PBLUC_R_SQUARED 0.674, read-out: LUCIFERASE INFECTION ASSAY - IC50) was 4.52 µM and the IC90 was > 10 µM.
Compound Cc1ccc2nc(NC(=O)c3ccc(Cl)cc3Cl)c(C(=O)NC3CCCC3)n2c1 has an IC50 (FFLUC_HILL_SLOPE 11.5, FFLUC_R_SQUARED 0.0941, HEPG2TOX_HILL_SLOPE 0.896, HEPG2TOX_R_SQUARED 0.951, PBLUC_HILL_SLOPE 3.11, PBLUC_R_SQUARED 0.82, read-out: LUCIFERASE INFECTION ASSAY - IC50) of 0.559 µM and an IC90 of 1.13 µM.
